Source: ChEMBL document CHEMBL1201862, “PubChem BioAssay data set” (2004)
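Test compounds were applied to cells in 96-well plates for 48 hours at 5 doses. Here, GI50 denotes the concentration required for 50% inhibition of growth.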 Activity calls are given as the source filed them. Cut-off read from the data, not from the text of the source: active = GI50 up to about 1.1 µM and inactive = higher.

Experiments:
Experiment in all cases: NCI anticancer screen, dose series, 48 h
TK-10 = tested on: TK-10
SF-295 = tested on: SF-295
NCI-H23 = tested on: NCI-H23
ACHN = tested on: ACHN
U-251 = tested on: U-251
SF-539 = tested on: SF-539
HCT-116 = tested on: HCT-116
SK-MEL-5 = tested on: SK-MEL-5
SN12C = tested on: SN12C
K562 = tested on: K562
M14 = tested on: M14
A498 = tested on: A498
UACC-62 = tested on: UACC-62
EKVX = tested on: EKVX
OVCAR-4 = tested on: OVCAR-4
SK-OV-3 = tested on: SK-OV-3
LOX IMVI = tested on: LOX IMVI

Measured: GI50

O=c1c2cc(Br)cc(Br)c2nc(CCCl)n1-c1ccc(O)c([N+](=O)[O-])c1
inactive: TK-10 18.5 µM | SF-295 24.1 µM | NCI-H23 21.7 µM | ACHN 19.7 µM | U-251 18.4 µM | SF-539 21.4 µM | HCT-116 14.7 µM | SK-MEL-5 20.1 µM | SN12C 17.6 µM | K562 33.3 µM | M14 17.2 µM | A498 25.8 µM | UACC-62 22.5 µM | EKVX 34.5 µM | OVCAR-4 15.5 µM | SK-OV-3 15.8 µM

CC1CC#CCOC(=O)CCCC1=O (configuration not stated)
inactive: TK-10 > 100 µM | SF-295 > 100 µM | NCI-H23 > 100 µM | U-251 > 100 µM | SF-539 > 100 µM | HCT-116 > 100 µM | SK-MEL-5 > 100 µM | SN12C > 100 µM | K562 > 100 µM | M14 > 100 µM | UACC-62 > 100 µM | OVCAR-4 > 100 µM | SK-OV-3 > 100 µM | LOX IMVI > 100 µM

C[N+](C)=c1[nH]c2ccccc2[nH]1
inactive: TK-10 > 100 µM | SF-295 > 100 µM | NCI-H23 > 100 µM | ACHN > 100 µM | U-251 > 100 µM | SF-539 > 100 µM | SK-MEL-5 > 100 µM | SN12C > 100 µM | K562 > 100 µM | M14 > 100 µM | UACC-62 > 100 µM | EKVX > 100 µM | OVCAR-4 > 100 µM | SK-OV-3 > 100 µM | LOX IMVI > 100 µM

CCOc1ccccc1NC(=O)CSc1nnc(Cc2ccccc2)o1
inactive: TK-10 71.1 µM | SF-295 98.4 µM | NCI-H23 17.2 µM | ACHN 22.5 µM | U-251 20.2 µM | SF-539 25.5 µM | HCT-116 30.6 µM | SK-MEL-5 19.3 µM | SN12C 26 µM | K562 54.8 µM | M14 21.9 µM | A498 66.7 µM | UACC-62 25.8 µM | OVCAR-4 26.4 µM | SK-OV-3 44.9 µM | LOX IMVI 15.5 µM

CCCCCCCCCCCc1nnc(N)o1
inactive: TK-10 > 100 µM | SF-295 > 100 µM | NCI-H23 > 100 µM | ACHN > 100 µM | U-251 > 100 µM | SF-539 > 100 µM | HCT-116 > 100 µM | SN12C > 100 µM | K562 51.5 µM | M14 > 100 µM | UACC-62 > 100 µM | OVCAR-4 65.2 µM | SK-OV-3 > 100 µM | LOX IMVI > 100 µM

COP12(OC)NC(=O)OC1(C(F)(F)F)c1ccccc1O2 (configuration not stated)
inactive: TK-10 > 100 µM | SF-295 > 100 µM | NCI-H23 > 100 µM | ACHN > 100 µM | SF-539 > 100 µM | HCT-116 > 100 µM | SK-MEL-5 > 100 µM | SN12C > 100 µM | K562 > 100 µM | M14 > 100 µM | UACC-62 > 100 µM | OVCAR-4 > 100 µM | SK-OV-3 > 100 µM | LOX IMVI > 100 µM

CC1(C)CCCC2(C)[C@@H]1CC[C@@]13CC(=O)[C@@](C)(CC[C@@H]21)C3 (some centres not stated)
inactive: TK-10 > 100 µM | SF-295 > 100 µM | NCI-H23 59.7 µM | ACHN 87.3 µM | U-251 49 µM | SF-539 > 100 µM | HCT-116 46.1 µM | SK-MEL-5 52.5 µM | SN12C 93.5 µM | K562 > 100 µM | M14 94.6 µM | UACC-62 > 100 µM | OVCAR-4 87.9 µM | SK-OV-3 > 100 µM | LOX IMVI 39.4 µM

CC(=O)OCC1OC(n2cccnc2=O)C(OC(C)=O)C1OC(C)=O (configuration not stated)
inactive: TK-10 > 100 µM | ACHN > 100 µM | U-251 > 100 µM | HCT-116 > 100 µM | SK-MEL-5 > 100 µM | SN12C > 100 µM | K562 > 100 µM | M14 > 100 µM | A498 > 100 µM | UACC-62 > 100 µM | EKVX > 100 µM | OVCAR-4 > 100 µM | SK-OV-3 > 100 µM | LOX IMVI > 100 µM

OC12c3ccccc3C1(N1CCOCC1)CCCCC21OCCCO1 (configuration not stated)
inactive: TK-10 > 100 µM | SF-295 > 100 µM | NCI-H23 > 100 µM | ACHN > 100 µM | U-251 > 100 µM | SF-539 > 100 µM | HCT-116 > 100 µM | SK-MEL-5 > 100 µM | SN12C > 100 µM | K562 > 100 µM | M14 > 100 µM | A498 > 100 µM | UACC-62 > 100 µM | OVCAR-4 > 100 µM | SK-OV-3 > 100 µM | LOX IMVI > 100 µM

C/C(=N/NS(=O)(=O)c1ccc(C)cc1)c1cccc[n+]1[O-]
inactive: TK-10 > 100 µM | SF-295 > 100 µM | NCI-H23 > 100 µM | ACHN > 100 µM | U-251 > 100 µM | SF-539 > 100 µM | HCT-116 > 100 µM | SK-MEL-5 > 100 µM | SN12C > 100 µM | M14 > 100 µM | A498 > 100 µM | UACC-62 > 100 µM | EKVX > 100 µM | OVCAR-4 > 100 µM | SK-OV-3 > 100 µM

COc1cccc(C(=O)C2C(=O)N(C)CCc3ccccc32)c1OC (configuration not stated)
inactive: TK-10 > 100 µM | NCI-H23 > 100 µM | ACHN > 100 µM | U-251 > 100 µM | HCT-116 > 100 µM | SK-MEL-5 > 100 µM | SN12C > 100 µM | K562 > 100 µM | M14 > 100 µM | A498 > 100 µM | UACC-62 > 100 µM | OVCAR-4 > 100 µM | SK-OV-3 > 100 µM | LOX IMVI > 100 µM

Cc1ccc2nc3c(Cl)cc(=O)cc-3sc2c1
inactive: TK-10 28.1 µM | SF-295 25.8 µM | NCI-H23 > 10 µM | ACHN 23.3 µM | U-251 20.7 µM | SF-539 3.38 µM | HCT-116 17.9 µM | SK-MEL-5 17.1 µM | SN12C > 10 µM | K562 17.6 µM | M14 22.1 µM | UACC-62 15.9 µM | EKVX 22.2 µM | OVCAR-4 16.1 µM | SK-OV-3 > 10 µM

COc1cc(C(=O)C/C(CCC(=O)Nc2ccccc2[N+](=O)[O-])=N\NC(=O)C(N)=O)ccc1O
inactive: TK-10 > 100 µM | SF-295 > 100 µM | NCI-H23 > 100 µM | ACHN > 100 µM | U-251 > 100 µM | SF-539 > 100 µM | HCT-116 > 100 µM | K562 > 100 µM | M14 > 100 µM | UACC-62 > 100 µM | EKVX > 100 µM | OVCAR-4 > 100 µM | SK-OV-3 > 100 µM | LOX IMVI > 100 µM
